Assay results as given in ChEMBL document CHEMBL3525988, “Delayed elimination of SN-38 in cancer patients with severe renal failure” (Drug Metab Dispos, 2011).

Key:
[1] = Terminal elimination rate constant in cancer patient normal renal function administered as infusion after 0.25 to 1.5 hrs by RP-HPLC analysis; type: ADME, organism-based; design: dosed compound name Irinotecan; conditions: human, in vivo, iv; read-out: k_elim (converted)
[2] = Terminal elimination rate constant in cancer patient with severe renal failure administered as infusion after 0.25 to 1.5 hrs by RP-HPLC analysis; type: ADME, organism-based; design: dosed compound name Irinotecan; conditions: human, in vivo, iv; read-out: k_elim (converted)

Row | k el [1] [s⁻¹] | k el [2] [s⁻¹] | SMILES
1 | 2.26e-05 | 2.34e-06 | CCc1c2c(nc3ccc(O)cc13)-c1cc3c(c(=O)n1C2)COC(=O)[C@]3(O)CC [7-ETHYL-10-HYDROXYCAMPTOTHECIN]
2 | 3.33e-05 | 2.81e-05 | CCc1c2c(nc3ccc(OC(=O)N4CCC(N5CCCCC5)CC4)cc13)-c1cc3c(c(=O)n1C2)COC(=O)[C@]3(O)CC [IRINOTECAN]

Row | SMILES | k el [1] [s⁻¹] | k el [2] [s⁻¹]
3 | CCc1c2c(nc3ccc(O[C@@H]4O[C@H](C(=O)O)[C@@H](O)[C@H](O)[C@H]4O)cc13)-c1cc3c(c(=O)n1C2)COC(=O)[C@]3(O)CC | 1.7e-05 | 8.61e-06
